Assay results from a melting point compilation (Tetko et al.; mined from patent text by program, amines drawn as free bases though some values may be those of a salt).

First: Cc1cc(OS(=O)(=O)C(F)(F)F)ccc1-c1cc(C(F)(F)F)nn1-c1ccc(S(C)(=O)=O)cc1
Second: O=C(Nc1c(F)cccc1F)c1ccc(-n2nc(C(F)(F)F)cc2C2CC2)nc1
The melting point of the first is lower: 175 °C for the first, 192 to 194 °C for the second.

First: CCOC1C(NC(=O)C(F)(F)F)CC(OC)OC1C (stereo unspecified)
Second: Cc1onc(C(F)(F)F)c1CS(=O)(=O)C1=NOC(C)(C)C1
The melting point of the first is higher: 183 to 185 °C for the first, 135 to 136 °C for the second.

Compared with COC1(c2ccccc2)N=CC(=O)N(C)c2ccc([N+](=O)[O-])cc21 (stereo unspecified), COC(=O)c1ccc([N+](=O)[O-])cc1NC(=O)c1ccc(C(C)(C)C)cc1 is lower in melting point: 163 to 164 °C for the first, 146 to 148 °C for the second.

First: CC(=O)Oc1ccc(C2CCC(=O)CC2)cc1
Second: COc1ccc2cc([C@H](C)C(=O)OCC(=O)N3CCC(CO[N+](=O)[O-])CC3)ccc2c1
The melting point of the first is higher: 104 to 106 °C for the first, 94 to 95 °C for the second.

First: O=C(N[C@H]1CC[C@H](CCN2CCN(c3nccc4c3CCO4)CC2)CC1)c1ccc(-c2ccccc2)cc1
Second: O=C(NCCCCN1CCC(c2c[nH]c3ccccc23)CC1)c1ccc(-c2ccc(C(F)(F)F)cc2)c(CO)c1
The melting point of the first is higher: 232 °C for the first, 177 °C for the second.

Compared with CCCCCCCCCCCC(=O)OCn1cc(F)c(=O)[nH]c1=O, CCCCCCCCCCCCc1cc(CO)on1 is lower in melting point: 114 °C for the first, 61 to 63 °C for the second.

First: CCCc1cc(-c2ccc(C3COC(c4c(F)cccc4F)=N3)cc2)ccc1O (stereo unspecified)
Second: Cc1ccc(C2OC(CO)C(O)C(O)C2O)cc1Cc1ccc(-c2ccc(F)cc2)s1 (stereo unspecified)
The melting point of the first is higher: 210 to 215 °C for the first, 106 to 107 °C for the second.

First: COC1CCc2oc3ccc(Br)cc3c(=O)c2C1 (stereo unspecified)
Second: COc1cc(-c2ccc(C(C)C)cc2)cc2oc(=O)c(Cl)c(C)c12
The melting point of the first is higher: 139 to 142 °C for the first, 124 °C for the second.

First: Cc1nc(N)sc1S(=O)(=O)NC(C)(CO)CO
Second: COC(=O)c1csc(CCCc2cc3c(=O)[nH]c(N)nc3[nH]2)c1
The melting point of the first is lower: 170 °C for the first, 182 to 183 °C for the second.

Compared with CCCCOC(=O)CNC(=O)c1ncccc1OCc1ccccc1, O=C(Cc1ccccc1)NCC(=O)c1ccccc1 is higher in melting point: 55 to 58 °C for the first, 66 to 77 °C for the second.

First: CCCn1cc2c(C3C(=O)Nc4ccc(C#N)cc43)nc(NCc3cccnc3)nc2n1 (stereo unspecified)
Second: Cc1ccc(Cc2cnc(NCCCN(Cc3ccc(Cl)cc3)c3ccccn3)[nH]c2=O)cn1
The melting point of the first is higher: 291 to 295 °C for the first, 88 to 92 °C for the second.

First: O=C(O)CCCCCCCCNS(=O)(=O)c1ccc(Cl)cc1
Second: CCCS(=O)(=O)c1ccc(NC(=O)CCCCCCCCCC=C(F)F)cc1
The melting point of the first is higher: 121 to 123 °C for the first, 67 to 70 °C for the second.

Compared with CN1CCC(O)(c2cc3ccccc3s2)CC1, COc1ccc2c(c1)C(N1CCN(C)CC1)c1ccccc1CC2 (stereo unspecified) is lower in melting point: 161 to 163 °C for the first, 119 to 120 °C for the second.

First: CCOC(=O)C(Cc1ccc(OCCn2c(=O)sc3cc(C(=O)C4CC4)ccc32)cc1)OCC(F)(F)F (stereo unspecified)
Second: O=C(COc1ccccc1)N[C@@H](Cc1ccc(OCCc2coc(-c3ccccc3)n2)cc1)C(=O)O
The melting point of the first is higher: 113 to 115 °C for the first, 94 to 97 °C for the second.

First: NC(=O)c1ccc(F)c2c1OCC(N(CCCc1c[nH]c3c(F)cc(F)cc13)C1CCC1)C2 (stereo unspecified)
Second: Cc1c(C(=O)Nc2ccc(N3CCCN(CCO)CC3)c(C#N)c2)cnn1-c1ccc(F)cc1
The melting point of the first is higher: 136 °C for the first, 124 °C for the second.

First: CCc1nc2c([nH]1)c(=O)n(C)c(=O)n2-c1ccc(Cl)cc1Cl
Second: CCOC(=O)c1cn(-c2nnn[nH]2)c2cc(F)c(F)cc2c1=O
The melting point of the first is higher: 274 to 276 °C for the first, 233 to 236 °C for the second.

First: COC(=O)C(Cc1ccccc1)Oc1ccc2cc(-c3csc(-c4ccccc4)n3)ccc2c1Br (stereo unspecified)
Second: CCC(C(=O)c1ccc(OCc2ccccc2)cc1)c1ccccc1 (stereo unspecified)
The melting point of the first is higher: 96 to 101 °C for the first, 71 °C for the second.

First: CC(C)c1cc(C(O)(C(F)(F)F)C(F)(F)F)cc(C(C)C)c1NCC(=O)O
Second: CN(C)C(=O)C=C(N(C(N)=O)c1cc(F)c(C#N)cc1F)C(F)(F)F
The melting point of the first is lower: 130 to 132 °C for the first, 198 °C for the second.

First: CNC(=O)C(=NOC)c1cccc(Cl)c1COc1ccc(Sc2ccc(Cl)cc2)cn1
Second: ON=C(c1ccc(Cl)cc1)c1cccc2nc(N[C@@H]3CCc4ccccc43)ccc12
The melting point of the first is lower: 116 to 118 °C for the first, 194 °C for the second.

First: Cc1cc(O)cc(C)c1-c1cccc(CO)c1
Second: CCn1cc(C(=O)O)c(=O)cc1-c1ccc(NC)c(C)c1
The melting point of the first is lower: 175 °C for the first, 243 to 244 °C for the second.

Compared with O=S(=O)(CI)c1ncc(Cl)cn1, CC(=O)Oc1ccc(-c2cncnc2Cl)cc1OC(C)=O is lower in melting point: 152 °C for the first, 108 °C for the second.

First: CN(c1cccc2cc(-c3ncc(COCC(=O)O)s3)[nH]c12)S(=O)(=O)c1cccs1
Second: COc1ccc(N(Cc2cc(C(C)(C)C)c(O)c(C(C)(C)C)c2)S(=O)(=O)c2cccs2)cn1
The melting point of the first is higher: 197 to 198 °C for the first, 96 to 97 °C for the second.

Compared with Cc1c(C)c2c(c(C)c1NC(=O)OC(C)(C)C)C(=O)C(C)(C)O2, Cc1cc(OC/C=C/c2ccc(C(C)C)cc2)c(C)c(C)c1NC=O is higher in melting point: 105 to 106 °C for the first, 165 to 167 °C for the second.

First: COc1ccc(C(C)C)cc1-c1cc(-c2nnnn2C2CCNC2)c(OCc2ccccc2)cc1OCc1ccccc1 (stereo unspecified)
Second: Cc1cc2cc(F)ccc2n1-c1ccc(OCc2ccccc2)cc1
The melting point of the first is lower: 85 to 87 °C for the first, 94 to 95 °C for the second.

COC(=O)C#CC(=O)c1cc(OC)ccc1OC and COc1cc2ncc(N[C@H]3CC[C@H](C(=O)OC)CC3)nc2cc1OC cannot be ordered by melting point: 70 to 71 °C for the first, 68 to 80 °C for the second.

First: COc1cc2cc(-c3ccccc3)sc2c(Cl)c1Cl
Second: Cc1c(-c2ccccc2)sc2nc(Nc3ccccc3)[nH]c(=O)c12
The melting point of the first is lower: 144 to 145 °C for the first, 270 to 290 °C for the second.

First: O=C(CCl)Nc1ccc2c(c1NC(=O)c1ccc(F)cc1)C(=O)c1ccccc1C2=O
Second: O=C1OC(=O)C(c2ccc(C(=O)O)cc2)=C1c1ccccc1
The melting point of the first is lower: 184 to 185 °C for the first, 247 to 249 °C for the second.

First: CC1CN(C(=O)COc2nc(-c3ccc(Cl)cc3)nc3c2CCCC3)CC(C)O1 (stereo unspecified)
Second: O=C(CCCCC(=O)N1CCN(c2cnccn2)CC1)c1ccc(Cl)cc1
The melting point of the first is higher: 265 to 268 °C for the first, 138 to 140 °C for the second.

First: O=C1N=c2ccccc2=N1
Second: O=P(O)(O)c1ccc2ccccc2n1
The melting point of the first is lower: 138 to 140 °C for the first, 200 °C for the second.

First: CC(C)(C)OC(=O)N1CCc2c(n(CCOc3ccccc3)c3cc(Cl)c(Cl)cc23)CC1
Second: COc1cc2ncnc(N3CCCc4ccccc43)c2cc1SC
The melting point of the first is lower: 136 to 138 °C for the first, 193 to 196 °C for the second.

First: CC(C)N(Cc1cccs1)C(=O)C12CC3CC(CC(C3)C1)C2
Second: O=C1NCC(COc2cccc3c2SCCC3)O1 (stereo unspecified)
The melting point of the first is higher: 156 to 158 °C for the first, 152 to 153 °C for the second.

First: COc1cc(C)c(C(C)O)cc1NC(=S)N1CCN(c2cc(Cl)cc(Cl)c2)CC1 (stereo unspecified)
Second: COc1ccc(N2CCN(c3ccc(N=C=S)cc3)CC2)cc1
The melting point of the first is lower: 166 to 168 °C for the first, 181 °C for the second.

First: CCCCCCCCCCOc1ccc2c(c1CCC)OC(CCC(=O)O)(CCC(=O)O)CC2=O
Second: CCCCCC/C=C\CCCCCCCC(=O)N[C@H]1CCCNC(=O)C1
The melting point of the first is higher: 144 to 146 °C for the first, 67 to 68 °C for the second.

Compared with CC(=O)N1CCn2c(c(C3=C(c4cn(C)c5ccccc45)C(=O)NC3=O)c3ccccc32)C1, N[C@@H](CN1CCC(=C2c3ccccc3CCc3ccccc32)CC1)C(=O)O is lower in melting point: 308 to 310 °C for the first, 150 to 151 °C for the second.

First: O=C(NC(=O)N1CCCCC1)c1cc(Cl)nc(Cl)c1
Second: S=c1[nH]c2c(n1Nc1cccc(Cl)c1)CCCC2
The melting point of the first is higher: 183 to 185 °C for the first, 148 °C for the second.

First: O=S(=O)(c1nc2c3ccccc3c3ccccc3c2[nH]1)C(F)(F)C(F)F
Second: O=C(O)/C=C/c1cccc(-c2nc(=O)c3ccccc3s2)n1
The melting point of the first is higher: 254 to 256 °C for the first, 116 °C for the second.

Compared with CCOC(=O)N(c1ccccc1N)c1cccc(C)c1C, CCOC(=O)c1cc2n(c1)CN(CCC#N)c1ccccc1-2 is higher in melting point: 95 to 97 °C for the first, 102 to 104 °C for the second.

First: Cn1nc(C(F)(F)F)cc1O
Second: Cc1c(C(=O)O)cnn1-c1nc(-c2ccccc2C(F)(F)F)cs1
The melting point of the first is lower: 170 to 173 °C for the first, 216 °C for the second.

First: c1coc(Cn2c(NC3CCN(CCOc4nccs4)CC3)nc3ccccc32)c1
Second: COC12CC(CN3CCC(c4c[nH]c5ccccc45)CC3)CN(C)C1Cc1c[nH]c3cccc2c13 (stereo unspecified)
The melting point of the first is lower: 136 °C for the first, 222 to 227 °C for the second.

First: CCCC12CCC(=O)C=C1c1c(cc(OC)c(Cl)c1Cl)C2Br (stereo unspecified)
Second: Cc1cc2c3c(c1)C1(CC(=O)NC1=O)C(=O)N3CCC2 (stereo unspecified)
The melting point of the first is lower: 132 to 134 °C for the first, 165 to 167 °C for the second.

First: CCCOC(=O)C(Cc1ccccc1)(Cn1cncn1)c1ccccc1OC (stereo unspecified)
Second: O=C(C=Cc1ccccc1-c1ccccc1)c1ccccc1
The melting point of the first is lower: 129 to 130 °C for the first, 190 °C for the second.

Compared with CCc1cn2ccccc2c1S(=O)(=O)c1ccc(O)cc1, Cc1cc2ccccc2c(-c2ccc(I)cc2)n1 is lower in melting point: 204 °C for the first, 146 to 147 °C for the second.

First: CN(C)N=C(O)c1cc(C(=N)O)c(C(=O)O)cc1C(=O)O
Second: CC(C)C(NC(=O)Cn1cccc(NC(=O)Cc2ccccc2)c1=O)C(=O)C(F)(F)F (stereo unspecified)
The melting point of the first is higher: 293 to 295 °C for the first, 70 to 72 °C for the second.

Compared with CCOC(=O)C=Cc1ccc(Oc2ccc([N+](=O)[O-])cc2)c(Cl)c1Cl, CC(C)(C)C1=NN(c2ccc(C(=O)O)cc2)C(c2ccc([N+](=O)[O-])cc2)C1 (stereo unspecified) is higher in melting point: 145 to 146 °C for the first, 245 °C for the second.

First: COc1ccc(-c2sc3cc(OC)ccc3c2Br)cc1
Second: COc1ccc(CCNC[C@H](O)COc2ccc(-c3nc(Br)c[nH]3)cc2Cl)cc1OC
The melting point of the first is lower: 83 °C for the first, 172 to 174 °C for the second.

First: CN(C)c1nc2sc3c(NCCN4CCOCC4)ncnc3c2c2c1COC(C)(C)C2
Second: COc1ccc2nc(NC(=O)C(CC3CCCC3)c3ccc(S(=O)(=O)Nc4cccnc4)cc3)sc2n1 (stereo unspecified)
The melting point of the first is higher: 195 to 196 °C for the first, 125 to 127 °C for the second.

Compared with Cc1c(-c2cc(C(C)(C)C)c(O)c(C(C)(C)C)c2)nc2n1CCS2, CCN(CC)Cc1ccc2c(c1)-c1[nH]nc(-c3ccsc3)c1C2 is lower in melting point: 258 to 261 °C for the first, 157 to 158 °C for the second.

First: CCCc1c(OCCCSc2ccc(-c3nnn[nH]3)cc2)ccc(C(C)=O)c1O
Second: Clc1ccc2nc(-c3cccs3)c(-c3ccncc3)n2n1
The melting point of the first is lower: 114 to 116 °C for the first, 208 to 210 °C for the second.

First: Nc1ccc(C23CC2C(=O)NC3=O)cc1 (stereo unspecified)
Second: O=C1C=C(c2ccccc2)S(=O)(=O)C(c2cccs2)=C1
The melting point of the first is higher: 183 to 185 °C for the first, 162 to 164 °C for the second.

First: CCC1C(=O)NC1C=COC(C)=O (stereo unspecified)
Second: OCc1cn(-c2ccc3c(c2)OC(F)(F)O3)cn1
The melting point of the first is lower: 102 °C for the first, 163 to 164 °C for the second.

OC(c1ccc(Cl)cc1)C(Nn1cncn1)c1ccc(F)cc1F (stereo unspecified) gave a melting point of 61 to 76 °C.
